Results reported in patent publication US8017391B2, “Human liver cancer cell line” (Univesity of Florida Research Foundation, Inc., priority 2006, dated 2011).

System: LH86 cells or Huh7.5 cells
Test: Tumor growth of implanted HCV susceptible cell lines in immune deficient mice
Assay type: in vivo
Conditions: injection of human EGF to NOD-SCID mice bearing subcutaneous tumor cells
Method: To establish a mouse model that is capable of supporting the whole viral life cycle, the present inventors implanted HCV susceptible cell lines (LH86 cells of the present invention or Huh7.5 cells) to immune deficient mice (NOD-SCID). When 1×10^6 cells were injected subcutaneously into the mice, visible tumor (0.5 cm) formed in one week, and the tumor continued to grow to 5 cm in size in 6 weeks. For LH86 cells, 5×10^6 tumor cells must be injected to achieve a similar tumor growth pattern.

Substance: human EGF: human EGF injected to mice (NSDSECPLSHDGYCLHDGVCMYIEALDKYACNCVVGYIGERCQYRDLKWWELR; UniProt P01133 971-1023, looked up)
- tumor growth rate: significantly accelerate
